Laboratory results as given in patent US8895585B2, “Nicotinamide derivative or salt thereof” (FUJIFILM Corporation, priority 2010, dated 2014).

Each compound was assayed against T1, glutathione S-transferase (GST)-fused full-length human Syk protein (Homo sapiens, UniProt P43405) (assay: Syk enzyme assay). Settings: Syk enzyme assay, Test Example 1; read-out: IC50 of Syk-inhibitory activity.
T1 construct: (GST)-fused full-length human Syk protein; GST (glutathione S-transferase); purchased Carna Biosciences
Format: biochemical
Summary of the method: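 GST-tagged full-length human Syk (baculovirus) preincubated with compound 15 min at room temperature (pH 7.0, 10 mM MgCl2), then reacted 40 min with 0.4 μM biotinylated peptide substrate and 27 μM ATP (final). Phosphorylation read by HTRF (615/665 nm) after EDTA stop; IC50 reported.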

SMILES	IC50
CC[C@H](N)[C@@H](CC)Nc1nc(Nc2cccc3c2cnn3C)c(C(N)=O)cc1F [Example 006-367, 6-(((3R,4S)-4-aminohexan-3-yl)amino)-5-fluoro-2-((1-methyl-1H-indazol-4-yl)amino)nicotinamide]	10 to 50 nM
CC[C@H](N)[C@@H](CC)Nc1nc(Nc2cncc(F)c2)c(C(N)=O)cc1F [Example 006-382, 6-(((3R,4S)-4-aminohexan-3-yl)amino)-5-fluoro-2-((5-fluoropyridin-3-yl)amino)nicotinamide]	10 to 50 nM
CC[C@H](N)[C@@H](CC)Nc1nc(Nc2cnc(OC)c(-n3nccn3)c2)c(C(N)=O)cc1F [Example 006-391, 6-(((3R,4S)-4-aminohexan-3-yl)amino)-5-fluoro-2-((6-methoxy-5-(2H-1,2,3-triazol-2-yl)pyridin-3-yl)amino)nicotinamide]	10 to 50 nM
COc1ncc(Nc2nc(N[C@H](CC3CC3)[C@H](C)N)c(F)cc2C(N)=O)cc1-n1nccn1 [Example 006-393, 6-(((2R,3S)-3-amino-1-cyclopropylbutan-2-yl)amino)-5-fluoro-2-((6-methoxy-5-(2H-1,2,3-triazol-2-yl)pyridin-3-yl)amino)nicotinamide]	10 to 50 nM
CCC[C@@H](Nc1nc(Nc2cc(OC)nc(OC)c2)c(C(N)=O)cc1F)[C@@H](N)CC [Example 006-413, 6-(((3S,4R)-3-aminoheptan-4-yl)amino)-2-((2,6-dimethoxypyridin-4-yl)amino)-5-fluoronicotinamide]	< 10 nM
NC(=O)c1cc(F)c(N[C@@H]2CCCC[C@@H]2N)nc1Nc1cnc(-n2cccn2)c(-n2cccn2)c1 [Example 006-448, 6-(((1R,2S)-2-aminocyclohexyl)amino)-2-((5,6-di(1H-pyrazol-1-yl)pyridin-3-yl)amino)-5-fluoronicotinamide]	50 to 100 nM
NC(=O)c1cc(F)c(N[C@@H]2CCCC[C@@H]2N)nc1Nc1cnc(-n2cccn2)c(-n2ccnn2)c1 [Example 006-450, 2-((6-(1H-pyrazol-1-yl)-5-(1H-1,2,3-triazol-1-yl)pyridin-3-yl)amino)-6-(((1R,2S)-2-aminocyclohexyl)amino)-5-fluoronicotinamide]	100 to 1000 nM
CCn1nc(C(C)C)c2cc(Nc3nc(N[C@@H]4CCCC[C@@H]4N)c(F)cc3C(N)=O)ccc21 [Example 006-462, 6-(((1R,2S)-2-aminocyclohexyl)amino)-2-((1-ethyl-3-isopropyl-1H-indazol-5-yl)amino)-5-fluoronicotinamide]	< 10 nM
COCCn1nc(C(C)C)c2cc(Nc3nc(N[C@@H]4CCCC[C@@H]4N)c(F)cc3C(N)=O)ccc21 [Example 006-463, 6-(((1R,2S)-2-aminocyclohexyl)amino)-5-fluoro-2-((3-isopropyl-1-(2-methoxyethyl)-1H-indazol-5-yl)amino)nicotinamide]	< 10 nM
NC(=O)c1cc(F)c(N[C@@H]2CCCC[C@@H]2N)nc1Nc1ccc(N2CC3(COC3)C2)nc1 [Example 006-467, 2-((6-(2-oxa-6-azaspiro[3.3]heptane-6-yl)pyridin-3-yl)amino)-6-(((1R,2S)-2-aminocyclohexyl)amino)-5-fluoronicotinamide]	10 to 50 nM
NC(=O)c1cc(F)c(N[C@@H]2CCCC[C@@H]2N)nc1Nc1ccc2c(F)nn(C3CC3)c2c1 [Example 006-476, 6-(((1R,2S)-2-aminocyclohexyl)amino)-2-((1-cyclopropyl-3-fluoro-1H-indazol-6-yl)amino)-5-fluoronicotinamide]	< 10 nM
CCCc1nn(C2CC2)c2ccc(Nc3nc(N[C@@H]4CCCC[C@@H]4N)c(F)cc3C(N)=O)cc12 [Example 006-479, 6-(((1R,2S)-2-aminocyclohexyl)amino)-2-((1-cyclopropyl-3-propyl-1H-indazol-5-yl)amino)-5-fluoronicotinamide]	< 10 nM
C[C@H](N)[C@@H](CC1CC1)Nc1nc(Nc2ccc3c(F)nn(C4CC4)c3c2)c(C(N)=O)cc1F [Example 006-481, 6-(((2R,3S)-3-amino-1-cyclopropylbutan-2-yl)amino)-2-((1-cyclopropyl-3-fluoro-1H-indazol-6-yl)amino)-5-fluoronicotinamide]	100 to 1000 nM
CCCc1nn(C2CC2)c2ccc(Nc3nc(N[C@H](CC4CC4)[C@H](C)N)c(F)cc3C(N)=O)cc12 [Example 006-482, 6-(((2R,3S)-3-amino-1-cyclopropylbutan-2-yl)amino)-2-((1-cyclopropyl-3-propyl-1H-indazol-5-yl)amino)-5-fluoronicotinamide]	< 10 nM
COCCn1nc(F)c2c(Nc3nc(N[C@H](CC4CC4)[C@H](C)N)c(F)cc3C(N)=O)cccc21 [Example 006-490, 6-(((2R,3S)-3-amino-1-cyclopropylbutan-2-yl)amino)-5-fluoro-2-((3-fluoro-1-(2-methoxyethyl)-1H-indazol-4-yl)amino)nicotinamide]	50 to 100 nM
C[C@H](N)[C@@H](CC1CC1)Nc1nc(Nc2cccc3c2c(F)nn3CCF)c(C(N)=O)cc1F [Example 006-491, 6-(((2R,3S)-3-amino-1-cyclopropylbutan-2-yl)amino)-5-fluoro-2-((3-fluoro-1-(2-fluoroethyl)-1H-indazol-4-yl)amino)nicotinamide]	10 to 50 nM

Further lines, results first:

IC50	SMILES
< 10 nM	CCC[C@@H](Nc1nc(Nc2ccc3c(cnn3CC)c2)c(C(N)=O)cc1F)[C@@H](N)CC [Example 006-399, 6-(((3S,4R)-3-aminoheptan-4-yl)amino)-2-((1-ethyl-1H-indazol-5-yl)amino)-5-fluoronicotinamide]
< 10 nM	CC(C)C[C@@H](Nc1nc(Nc2ccc3c(cnn3CCF)c2)c(C(N)=O)cc1F)[C@H](C)N [Example 006-419, 6-(((2S,3R)-2-amino-5-methylhexan-3-yl)amino)-5-fluoro-2-((1-(2-fluoroethyl)-1H-indazol-5-yl)amino)nicotinamide]
50 to 100 nM	CCCC[C@H](CN)Nc1nc(Nc2ccc3c(cnn3CC(F)F)c2)c(C(N)=O)cc1F [Example 006-421, (R)-6-((1-aminohexan-2-yl)amino)-2-((1-(2,2-difluoroethyl)-1H-indazol-5-yl)amino)-5-fluoronicotinamide]
< 10 nM	CC(C)C[C@H](CN)Nc1nc(Nc2ccc3c(cnn3CC(F)F)c2)c(C(N)=O)cc1F [Example 006-422, (R)-6-((1-amino-4-methylpentan-2-yl)amino)-2-((1-(2,2-difluoroethyl)-1H-indazol-5-yl)amino)-5-fluoronicotinamide]
10 to 50 nM	CC[C@@H](Nc1nc(Nc2ccc3c(cnn3CC(F)F)c2)c(C(N)=O)cc1F)[C@H](C)N [Example 006-423, 6-(((2S,3R)-2-aminopentan-3-yl)amino)-2-((1-(2,2-difluoroethyl)-1H-indazol-5-yl)amino)-5-fluoronicotinamide]
10 to 50 nM	CCC[C@@H](Nc1nc(Nc2ccc3c(cnn3CC(F)F)c2)c(C(N)=O)cc1F)[C@H](C)N [Example 006-424, 6-(((2S,3R)-2-aminohexan-3-yl)amino)-2-((1-(2,2-difluoroethyl)-1H-indazol-5-yl)amino)-5-fluoronicotinamide]
10 to 50 nM	CCCC[C@@H](Nc1nc(Nc2ccc3c(cnn3CC(F)F)c2)c(C(N)=O)cc1F)[C@H](C)N [Example 006-425, 6-(((2S,3R)-2-aminoheptan-3-yl)amino)-2-((1-(2,2-difluoroethyl)-1H-indazol-5-yl)amino)-5-fluoronicotinamide]
100 to 1000 nM	C[C@H](N)[C@@H](CC1CC1)Nc1nc(Nc2ccc3c(cnn3CC(F)F)c2)c(C(N)=O)cc1F [Example 006-426, 6-(((2R,3S)-3-amino-1-cyclopropylbutan-2-yl)amino)-2-((1-(2,2-difluoroethyl)-1H-indazol-5-yl)amino)-5-fluoronicotinamide]
10 to 50 nM	CCn1ncc2ccc(Nc3nc(N[C@H](CC4CC4)[C@H](C)N)c(F)cc3C(N)=O)cc21 [Example 006-436]
10 to 50 nM	C[C@H](N)[C@@H](CC1CC1)Nc1nc(Nc2ccc3cnn(CCF)c3c2)c(C(N)=O)cc1F [Example 006-437, 6-(((2R,3S)-3-amino-1-cyclopropylbutan-2-yl)amino)-5-fluoro-2-((1-(2-fluoroethyl)-1H-indazol-6-yl)amino)nicotinamide]
10 to 50 nM	C[C@H](N)[C@@H](CC1CC1)Nc1nc(Nc2ccc3cnn(CC(F)F)c3c2)c(C(N)=O)cc1F [Example 006-438, 6-(((2R,3S)-3-amino-1-cyclopropylbutan-2-yl)amino)-2-((1-(2,2-difluoroethyl)-1H-indazol-6-yl)amino)-5-fluoronicotinamide]
10 to 50 nM	C[C@H](N)[C@@H](CC1CC1)Nc1nc(Nc2ccc3c(c2)c(F)nn3C)c(C(N)=O)cc1F [Example 006-439, 6-(((2R,3S)-3-amino-1-cyclopropylbutan-2-yl)amino)-5-fluoro-2-((3-fluoro-1-methyl-1H-indazol-5-yl)amino)nicotinamide]
10 to 50 nM	C[C@H](N)[C@@H](CC1CC1)Nc1nc(Nc2ccc3c(F)nn(C)c3c2)c(C(N)=O)cc1F [Example 006-440, 6-(((2R,3S)-3-amino-1-cyclopropylbutan-2-yl)amino)-5-fluoro-2-((3-fluoro-1-methyl-1H-indazol-6-yl)amino)nicotinamide]
10 to 50 nM	CCn1nc(F)c2ccc(Nc3nc(N[C@H](CC4CC4)[C@H](C)N)c(F)cc3C(N)=O)cc21 [Example 006-441, 6-(((2R,3S)-3-amino-1-cyclopropylbutan-2-yl)amino)-2-((1-ethyl-3-fluoro-1H-indazol-6-yl)amino)-5-fluoronicotinamide]
10 to 50 nM	C[C@H](N)[C@@H](CC1CC1)Nc1nc(Nc2cccc3c2c(F)nn3CC(F)F)c(C(N)=O)cc1F [Example 006-492, 6-(((2R,3S)-3-amino-1-cyclopropylbutan-2-yl)amino)-2-((1-(2,2-difluoroethyl)-3-fluoro-1H-indazol-4-yl)amino)-5-fluoronicotinamide]
